Laboratory results published in PMC11576395 (iScience, 2024).
Read-outs that look alike come from different tables or passages of the source.

Key:
Test in all cases: thioflavin T aggregation assay of recombinant protein, […] compound
Type in all cases: biochemical
Details in all cases: read-out: % inhibition at 50 μM
[1] = target: T1, α-synuclein (Homo sapiens, UniProt P37840)
[2] = target: T1, α-synuclein; remark: listed apart in the source
[3] = target: T2, AIMP2 (aminoacyl-tRNA synthetase interacting multifunctional protein-2) (Homo sapiens, UniProt Q13155)
T2 sequence (Q13155 1-320): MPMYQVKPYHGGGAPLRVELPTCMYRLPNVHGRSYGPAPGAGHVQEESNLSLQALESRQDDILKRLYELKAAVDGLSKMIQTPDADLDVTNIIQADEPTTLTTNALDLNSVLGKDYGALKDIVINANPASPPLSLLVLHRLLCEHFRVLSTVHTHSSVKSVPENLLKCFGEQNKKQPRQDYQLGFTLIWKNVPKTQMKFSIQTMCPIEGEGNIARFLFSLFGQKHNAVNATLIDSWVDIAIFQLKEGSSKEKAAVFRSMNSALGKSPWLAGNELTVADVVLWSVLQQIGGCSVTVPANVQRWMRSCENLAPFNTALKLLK

SMILES: C[C@]12CC[C@H]3[C@@H](CCC4=CC(=O)CC[C@@H]43)[C@@H]1CC[C@@H]2O [Nandrolone]
- inhibition at 50 µM [1]: ~39.9%

SMILES: CC(C)COc1ccc2c(c1)CC[C@@H]1[C@@H]2CC[C@]2(C)[C@H](O)CC[C@@H]12 [SG13-136, (8R,9S,13S,14S,17R)-3-isobutoxy-13-methyl-7,8,9,11,12,13,14,15,16,17-decahydro-6H-cyclopenta[a]phenanthren-17-ol]
- inhibition at 50 µM [2]: 36.7%
- inhibition at 50 µM [3]: 56.2%
